Reference: patent publication US20090137662A1, “SYNERGY OF DOPAMINE D2 AND ADENOSINE A2 RECEPTORS ACTIVATES PKA SIGNALING VIA BETA/GAMMA DIMERS” (The Regents of the University of California, priority 2002, published 2009)
Where a name gives a salt, the structure may show the parent alone. Read-outs that look alike come from different tables or passages of the source.

Assays:
ε-PKC [1] = assay: Translocation of ε-PKC in NG108-15 and CHO cells expressing the applicable receptor; type: cell-based
Excerpt: (§1) To determine whether addictive drugs other than ethanol would cause translocation of some proteins, we examine the effects of various receptor agonists and antagonists on ε-PKC δ-PKC or PKA Cα translocation in NG108-15 and CHO cells expressing the applicable receptor. […] Adenosine is also implicated in some behavioral effects of ethanol.
(§2) The mechanisms underlying ethanol- and dopamine-mediated translocation of ε-PKC and δ-PKC were studied by altering the activity of various molecules that might be in the pathways leading to translocation.

[2] = test system: CRE-regulated luciferase expression; assay: CRE-luciferase reporter in NG108-15 cells; type: cell-based
Method: Luciferase is used as a reporter gene in a transient expression system to identify substances that alter the effects of ethanol on CRE-regulated gene expression. Cells are cultured as described in Dohrman et al., Proc Natl Acad Sci USA (1996) 93:10217-10221, and are transfected using Effectene (Qiagene) as described by the manufacturers. Twenty-four hours after transfection the cells are treated with 200 mM ethanol for 30 min. to 36 hr. Luciferase activity is measured using Luciferase Assay System (Promega) and normalized to β-galactosidase activity.
(§3) NG108-15 cells were co-transfected with a fusion construct containing the cAMP response element (CRE) fused to luciferase as a reporter gene (Stratagene).
Since the ERK/MAPK pathway may regulate CREB phosphorylation and CRE-mediated gene expression, NG108-15 cells having the luciferase construct were co-incubated with 200 mM ethanol and a MEK inhibitor (PD98059 (2 nM, Calbiochem, San Diego, Calif.) or U0126 (1 μM, Calbiochem, San Diego, Calif.)) or a dominant negative MEK construct (DN-MEK, Dr. R. Seger) in which Lys-97 was replaced by alanine.
as §3

PKA Cα [3] = type: cell-based; settings: for translocation of PKA-Cα after co-incubation with NPA: 10 minute co-incubation with 10^−10M NPA, 10^−11M DADLE or 2×10^−10M methanindamide
Excerpt: as §1

PKA Cα [4] = assay: PKA Cα translocation in primary cultures of hippocampal neurons; settings: for effect of agent alone on PKA Cα localization: data not shown
ε-PKC [5] = type: cell-based
Method: NG 108-15 or CHO cells were pre-incubated in the presence or absence of the indicated inhibitor for 30 min. (except for GF which was pre-incubated for 1 hour), then further incubated in the absence or presence of 200 mM ethanol for 30 min.

δ-PKC [6] = type: cell-based; settings: naive NG108-15 cells; 100 nM PMA, 10 min.
Method: (§4) Naive NG108-15 cells were, therefore, incubated in for ten (10) min. in 100 nM PMA, to then determine localization of δ-PKC and ε-PKC.

ε-PKC [7] = type: cell-based; settings: naive NG108-15 cells; 100 nM PMA, 10 min.
Method: as §4

[8] = test system: CREB (GAL4-CREB fusion, luciferase reporter); assay: GAL4-CREB / GAL4-luciferase reporter in NG108-15 cells; type: cell-based; settings: 20 μM Rp-cAMPS 2 h, 5 μM KN-62 or 50 nM GF 30 min pretreatment, then ethanol 14 hours
Method: Cells are cultured as described in Dohrman et al., Proc Natl Acad Sci USA (1996) 93:10217-10221, and are transfected using Effectene (Qiagene) as described by the manufacturers. […] Luciferase activity is measured using Luciferase Assay System (Promega) and normalized to β-galactosidase activity.
NG108-15 cells are co-transfected with a GAL4-CREB fusion construct and with a second construct containing the DNA binding site of GAL4 fused to luciferase as a reporter gene. […] The ethanol-induced increase in luciferase activity induced was inhibited by Rp-cAMPS but not by the CaMK and PKC inhibitors KN-62 and GF, respectively (FIGS. 15 and 16B).

δ-PKC [9] = assay: Translocation of δ-PKC in NG108-15 and CHO cells expressing the applicable receptor; type: cell-based
Excerpt: as §1, §2

[10] = test system: CRE-mediated gene expression; assay: CRE-luciferase reporter assay in NG108-15/D2 cells; settings: NG108-15/D2 cells; spiperone, Rp-cAMPS or PTX alone
Method: Cells were transiently transfected with a CRE-luciferase reporter construct to measure gene expression via endogenous CRE-binding protein (CREB).
NG108-15/D2 cells were plated at 1×10^6 cells/100 mm plate, grown in defined medium for 3 days, and then transfected with 10 μg of CRE-luciferase construct using the LipofectAMINE reagent (GIBCOL) as recommended by the manufacturer. Cells were cultured for 24 h post transfection before being seeded into 12-well plates. […] Cells were then washed with PBS and cultured for a total of 5 h. Cell extracts were prepared and luciferase activity measured with a luciferase assay system (Promega, Madison, Wis.), using a Rosys Anthos Lucy2 microplate luminometer (Anthos Labtec Instruments, Austria). Results are expressed as percent increase over control. Data represent three or more separate experiments from triplet wells. Luciferase activities were normalized for transfection efficiency determined in cells transfected in parallel with pCMVβgalactosidase. β-galactosidase activity was measured using a kit from Strategene (La Jolla, Calif.).

[11] = test system: PKA subunits (RIα, RIIα, RIβ, Cα, Cβ, Cγ); assay: Immunocytochemical localization of PKA subunits in neutrophils; type: cell-based, human
Excerpt: Methods 5:249-252 (1974). […] This step removed contaminating platelets from the lymphocyte fraction. […] Images were further analyzed using NIH Image.

[12] = NG108-15 cells expressing the applicable receptor, 200 mM Ethanol, 50 nM NPA, 1 μM D-ala-D-leu-enkephalin, 2 μM R(+) methanindamide, 20 μM Carbachol, 10^−5 M UK14304, 20 nM CCPA, 100 nM CGS-21680 HCl, None: Perinucleus
[13] = primary hippocampal neurons, 50 nM NPA, spiperone 10 μM, DPCPX 100 nM, DMPX 10 μM 30 min, Rp-cAMPS 20 μM 1.5 hours, PTX 50 ng/ml or Ad5QEHA overnight
[14] = CHO cells expressing the dopamine D2 receptor
[15] = NG108-15 cells expressing the dopamine D2 receptor
[16] = NG108-15 cells, H-89 10 μM, PD98059 2 nM, U0126 1 μM, DN-RIα, DN-MEK, CREB-M1 constructs co-transfected
[17] = PKA agonist Sp-cAMPS, or forskolin or PGE1 to increase cAMP levels
[18] = 10 μM spiperone or 10 μM BW 1434 + 200 mM ethanol

## OC[C@H]1O[C@@H](n2cnc3c(NC4CCCC4)nc(Cl)nc32)[C@H](O)[C@@H]1O [CCPA, 2-chloro-N^6-cyclopentyladenosine]
ε-PKC [1]; [12]
  Predominant Localization of ε-PKC (agent alone): Cytoplasm

## CCNC(=O)[C@H]1O[C@@H](n2cnc3c(N)nc(NCCc4ccc(CCC(=O)O)cc4)nc32)[C@H](O)[C@@H]1O [CGS-21680 HCl]
ε-PKC [1]; [12]
  Predominant Localization of ε-PKC (agent alone): Cytoplasm

## C[N+](C)(C)CCOC(N)=O [Carbachol]
ε-PKC [1]; [12]
  Predominant Localization of ε-PKC (agent alone): Perinucleus

## CC(C)C[C@@H](NC(=O)[C@H](Cc1ccccc1)NC(=O)CNC(=O)[C@@H](C)NC(=O)[C@@H](N)Cc1ccc(O)cc1)C(=O)O [DADLE, enkephalin (D-ala2,D-leu5)]
[2]; NG108-15 cells, 10 nM DADLE, four hours
  increase in luciferase expression: 40%
ε-PKC [1]
  Predominant Localization of ε-PKC (agent alone): Cytoplasm
PKA Cα [3]
  translocation of PKA-Cα after co-incubation with ethanol: Synergistic translocation
  translocation of PKA-Cα after co-incubation with NPA: Synergistic translocation
PKA Cα [3]; 10 minute coincubation of 10^−11M DADLE and 2×10^−10M methanindamide
  translocation of PKA-Cα after co-incubation of δ-opioid and cannabinoid: did not result in synergistic translocation

## C#CCn1c(=O)c2c(ncn2C)n(C)c1=O [DMPX]
PKA Cα [4]; [13]
  effect on NPA-induced PKA Cα translocation: do not affect
PKA Cα [4]; primary hippocampal neurons
  effect of agent alone on PKA Cα localization: no effect

## CCCn1c(=O)c2[nH]c(C3CCCC3)nc2n(CCC)c1=O [DPCPX]
PKA Cα [4]
  effect on NPA-induced PKA Cα translocation: do not affect
  effect on ethanol-induced PKA Cα translocation: prevents
PKA Cα [4]; primary hippocampal neurons
  effect of agent alone on PKA Cα localization: no effect

## CCCCCCCCCCCCCCCCCCOCC(COP(=O)([O-])OCC[N+](C)(C)C)OC (centres unmarked) [Et-18-OCH3]
ε-PKC [5]
  Predominant ε-PKC Localization (ethanol + inhibitor): Perinucleus
ε-PKC [1]; [14]
  inhibition of ethanol-induced translocation of ε-PKC: 87%
ε-PKC [1]; [15]
  inhibition of ethanol-induced translocation of ε-PKC: 96%

## CN(C)CCCn1cc(C2=C(c3c[nH]c4ccccc34)C(=O)NC2=O)c2ccccc21 [GF, Bisindoylmaleimide I]
ε-PKC [5]
  Predominant ε-PKC Localization (ethanol + inhibitor): Perinucleus

## O=S(=O)(NCCNC/C=C/c1ccc(Br)cc1)c1cccc2cnccc12 [H-89]
[2]; [16]
  effect on the increase in luciferase expression after 14 hours of exposure to 200 mM ethanol: inhibit the increase in luciferase expression

## Cl.c1ccc([C@@H]2CCC[C@@H]2NC2=NCCCCCCCCCCC2)cc1 [MDL 12, 330A Hydrochloride]
ε-PKC [5]
  Predominant ε-PKC Localization (ethanol + inhibitor): Perinucleus

## COc1cccc(-c2cc(=O)c3ccccc3o2)c1N [PD98059]
[2]; [16]
  effect on the increase in luciferase expression after 14 hours of exposure to 200 mM ethanol: eliminated the increase in luciferase activity

## CCCCCCCCCCCCCC(=O)O[C@@H]1[C@@H](C)[C@@]2(O)[C@@H](C=C(CO)C[C@]3(O)C(=O)C(C)=C[C@@H]23)[C@@H]2C(C)(C)[C@]12OC(C)=O [PMA, phorbol myristate acetate]
δ-PKC [6]
  localization of δ-PKC on activation by PMA: mainly translocated to the perinucleus
ε-PKC [7]
  localization of ε-PKC on activation by PMA: nuclear and perinuclear localization

## CCCCC/C=C\C/C=C\C/C=C\C/C=C\CCCC(=O)N[C@H](C)CO [R(+) methanindamide]
ε-PKC [1]
  Predominant Localization of ε-PKC (agent alone): Cytoplasm
PKA Cα [3]
  translocation of PKA-Cα after co-incubation with ethanol: Synergistic translocation
  translocation of PKA-Cα after co-incubation with NPA: Synergistic translocation

## Nc1ncnc2c1ncn2[C@@H]1O[C@@H]2CO[P@@](O)(=S)O[C@H]2[C@H]1O [Rp-cAMPS]
ε-PKC [5]
  Predominant ε-PKC Localization (ethanol + inhibitor): Perinucleus
[8]
  effect on the ethanol-induced increase in luciferase activity (GAL4-CREB / GAL4-luciferase): inhibited
[2]; NG108-15 cells, 200 mM ethanol co-incubated with Rp-cAMPS 20 μM
  effect on early (4 h) and late (14 h) phases of ethanol-induced increases in luciferase expression: completely inhibited both the early and late phases
ε-PKC [1]
  effect on NPA-induced translocation of ε-PKC: blocked
  effect on ethanol-induced translocation of ε-PKC: blocked
δ-PKC [9]
  effect on NPA-induced translocation of δ-PKC: did not affect
  effect on ethanol-induced translocation of δ-PKC: did not affect
[10]
  effect of agent alone on luciferase activity / gene expression: without effect
PKA Cα [4]; [13]
  effect on NPA-induced PKA Cα translocation: prevent
PKA Cα [4]; primary hippocampal neurons
  effect of agent alone on PKA Cα localization: no effect

## Nc1ncnc2c1ncn2[C@@H]1O[C@@H]2COP(O)(=S)O[C@H]2[C@H]1O (some centres unmarked) [Sp-cAMPS]
ε-PKC [1]; [17]
  translocation of ε PKC on activation of PKA: translocate to the cytoplasm
δ-PKC [9]; [17]
  translocation of δ PKC on activation of PKA: did not induce translocation

## N#CC(=C(/N)Sc1ccccc1N)/C(C#N)=C(\N)Sc1ccccc1N [U0126]
[2]
  effect on the increase in luciferase expression after 14 hours of exposure to 200 mM ethanol: eliminated the increase in luciferase activity

## COc1ccc2c(c1)CC[C@@H]1[C@@H]2CC[C@]2(C)[C@@H](NCCCCCCN3C(=O)C=CC3=O)CC[C@@H]12 [U 73122]
ε-PKC [5]
  Predominant ε-PKC Localization (ethanol + inhibitor): Perinucleus
ε-PKC [1]; [14]
  inhibition of ethanol-induced translocation of ε-PKC: 87%
ε-PKC [1]; [15]
  inhibition of ethanol-induced translocation of ε-PKC: 84%

## Brc1c(NC2=NCCN2)ccc2nccnc12 [UK14304]
ε-PKC [1]; [12]
  Predominant Localization of ε-PKC (agent alone): Perinucleus

## C=C[C@@]1(C)CC(=O)[C@]2(O)[C@@]3(C)[C@@H](O)CCC(C)(C)[C@@H]3[C@H](O)[C@H](OC(C)=O)[C@@]2(C)O1 [forskolin]
[11]; neutrophils from non-alcoholics, 200 mM ethanol or 100 nM forskolin
  effect on localization of the catalytic subunits of PKA (Cα, Cβ, Cγ): no effect
[11]; neutrophils, ethanol or forskolin
  effect on the localization of RIIα: no effect

## O=C(CCCN1CCC2(CC1)C(=O)NCN2c1ccccc1)c1ccc(F)cc1 [spiperone]
ε-PKC [1]
  effect on NPA-induced translocation of ε-PKC: blocked
  effect on ethanol-induced translocation of ε-PKC: no effect
ε-PKC [1]; 10 μM spiperone + 50 nM NPA
  Predominant Localization of ε-PKC (antagonist + NPA): Perinucleus
ε-PKC [1]; [18]
  Predominant Localization of ε-PKC (antagonist + ethanol): Cytoplasm
δ-PKC [9]
  effect on NPA-induced translocation of δ-PKC: blocked
  effect on ethanol-induced translocation of δ-PKC: no effect
δ-PKC [9]; 10 μM spiperone + 50 nM NPA
  Predominant Localization of δ-PKC (antagonist + NPA): Golgi
δ-PKC [9]; [18]
  Predominant Localization of δ-PKC (antagonist + ethanol): Perinucleus &
PKA Cα [3]
  effect on NPA-induced translocation of PKA Cα: blocked
  effect on ethanol-induced translocation of PKA Cα: no effect
PKA Cα [3]; 10 μM spiperone + 50 nM NPA
  Predominant Localization of PKA Cα (antagonist + NPA): Golgi
PKA Cα [3]; 10 μM spiperone + 200 mM ethanol
  Predominant Localization of PKA Cα (antagonist + ethanol): Nucleus &
[10]
  effect of agent alone on luciferase activity / gene expression: without effect
PKA Cα [4]; [13]
  effect on NPA-induced PKA Cα translocation: blocks
PKA Cα [4]; primary hippocampal neurons
  effect of agent alone on PKA Cα localization: no effect
